Experimental data reported in the NIST ThermoML archive (doi:10.1021/je100832h).
Numbers after ± are expanded uncertainties.

Conditions: Liquid; for mass density: 101.32 kPa, Vibrating tube method; for vapor or sublimation pressure: Ebulliometric method (Recirculating still)

CCOC(C)=O [ethyl acetate]
Conditions	mass density [kg/m3]	vapor or sublimation pressure [kPa]
291.15 K	902.88 ± 0.73	–
297.17 K	–	11.89 ± 0.05
298.15 K	894.4 ± 0.72	–
303.35 K	–	16.04 ± 0.06
306.25 K	–	18.33 ± 0.06
308.86 K	–	20.64 ± 0.07
310.67 K	–	22.44 ± 0.07
312.53 K	–	24.34 ± 0.08
315.44 K	–	27.63 ± 0.08
318.15 K	869.6 ± 0.69	–
318.46 K	–	31.33 ± 0.09
321.01 K	–	34.85 ± 0.1
323.47 K	–	38.43 ± 0.11
324.8 K	–	40.61 ± 0.11
327.41 K	–	44.98 ± 0.12
328.15 K	857.17 ± 0.68	–
329.77 K	–	49.27 ± 0.13
331.51 K	–	52.56 ± 0.14
333.07 K	–	55.72 ± 0.15
335.02 K	–	59.91 ± 0.15
336.33 K	–	62.83 ± 0.16
337.91 K	–	66.49 ± 0.17
339.09 K	–	69.34 ± 0.18
340.23 K	–	72.26 ± 0.18
341.69 K	–	76.02 ± 0.19
343.03 K	–	79.83 ± 0.2
344.11 K	–	82.56 ± 0.2
345.53 K	–	86.85 ± 0.22
346.86 K	–	90.81 ± 0.22
348.09 K	–	94.63 ± 0.23
348.75 K	–	96.74 ± 0.24
349.45 K	–	98.97 ± 0.25
349.56 K	–	99.36 ± 0.25
349.76 K	–	100.07 ± 0.25
349.93 K	–	100.68 ± 0.24
350.15 K	–	101.32 ± 0.24
351.12 K	–	104.65 ± 0.25
351.77 K	–	106.84 ± 0.26
352.12 K	–	108.13 ± 0.27
352.94 K	–	111.21 ± 0.27
353.91 K	–	114.65 ± 0.27
354.43 K	–	116.46 ± 0.28
354.93 K	–	118.56 ± 0.29
355.5 K	–	120.68 ± 0.29
355.91 K	–	122.31 ± 0.29
356.37 K	–	124 ± 0.3
357.35 K	–	127.89 ± 0.3
357.92 K	–	130 ± 0.31
358.74 K	–	133.45 ± 0.32
359.44 K	–	136.34 ± 0.33
360.03 K	–	139.07 ± 0.33
360.88 K	–	142.55 ± 0.34
361.73 K	–	146.37 ± 0.35
362.62 K	–	150.43 ± 0.36
363.72 K	–	155.58 ± 0.36
364.25 K	–	157.94 ± 0.37
364.81 K	–	160.53 ± 0.38
365.52 K	–	163.99 ± 0.39
366.29 K	–	167.81 ± 0.39
367 K	–	171.33 ± 0.4
367.64 K	–	174.65 ± 0.41
367.98 K	–	176.37 ± 0.41
368.83 K	–	180.88 ± 0.42
369.49 K	–	184.43 ± 0.43
370.07 K	–	187.47 ± 0.44
370.69 K	–	190.92 ± 0.44
371.5 K	–	195.35 ± 0.45
